Patent US9006191B2, “Silencing of polo-like kinase expression using interfering RNA” (Protiva Biotherapeutics, Inc., priority 2007, dated 2015)
Where two headings read alike, the source gives them in different places. m = 2'-O-methyl; r = 2'-OH (RNA)

What was measured:
Hep3B liver tumors = test: Intrahepatic Hep3B tumor model (survival, body weight, tumor burden); type: in vivo; settings: scid/beige mice, 2 mg/kg IV twice weekly for 3 weeks
Description: SNALP containing PLK-1 siRNA (“1:57” SNALP formulation: 1.4% PEG-cDMA; 57.1% DLinDMA; 7.1% DPPC; and 34.3% cholesterol) were tested for their effects on the survival of […] mice bearing Hep3B liver tumors.
Intrahepatic tumor models. Liver tumors were established in mice by direct intrahepatic injection of Hep3B or Neuro2a tumor cells (45). Female scid/beige mice (Charles River Laboratories) and male A/J mice (Jackson Laboratories) were used as hosts for the Hep3B and Neuro2a tumors, respectively. Animals received Anafen by SC injection immediately prior to surgery. Individual mice were anaesthetized by isoflourane gas inhalation and eye lube applied to prevent excessive eye drying. While maintained under gas anaesthesia, a single 1.5 cm incision across the midline was made below the sternum and the left lateral hepatic lobe exteriorized. 1×10^6 Hep3B cells or 1×10^5 Neuro2a cells suspended in 25 μL PBS were injected slowly into the lobe at a shallow angle using a Hamilton syringe and 30G needle. A swab was then applied to the puncture wound to stop any bleeding prior to suturing. Mice were allowed to recover from anaesthesia in a sterile cage and monitored closely for 2-4 h before being returned to conventional housing.
Eight to 11 days after tumor implantation, mice were randomized into treatment groups. siRNA SNALP formulations or PBS vehicle control were administered by standard intravenous injection via the lateral tail vein, calculated on a mg siRNA/kg basis according to individual animal weights (10 mL/kg injection volume). Body weights were then monitored throughout the duration of the study as an indicator of developing tumor burden and treatment tolerability. For efficacy studies, defined humane endpoints were determined as a surrogate for survival. Assessments were made by qualified veterinary technicians based on a combination of clinical signs, weight loss, and abdominal distension to define the day of euthanization due to tumor burden.
Measurement of human PLK-1 and GAPDH mRNA in tumor tissues. Tumors were harvested directly into RNALater and stored at 4° C. until processing. 100 mg tumor tissue was homogenized in Tissue and Lysis Solution (EpiCentre Biotechnologies) containing […] proteinase K (EpiCentre) in a Fastprep tissue homogenizer followed by incubation in a 65° C. waterbath for 15 min and centrifuged to clarify lysates. mRNA analysis in FIG. 33B was performed on purified RNA isolated according the 5′-RACE-PCR protocol. Human PLK-1 and GAPDH mRNA were measured in tumor lystes by the QuantiGene bDNA assay (Panomics) as per the manufacturer's instructions (Quantigene 1.0 Manual). […] Data were expressed as mean PLK-1:GAPDH ratio+/−SD of individual animals. Tumor burden was assessed by homogenizing the complete liver from tumor bearing mice and measuring the total hGAPDH signal (RLU's) within the liver. Values were expressed as hGAPDH RLU/mg total liver.

PLK-1 mRNA = test: 5′ RACE-PCR of Hep3B liver tumors; type: in vivo, human; settings: hepatic Hep3B tumors, single 2 mg/kg IV dose
Description: (§1) 5′ RNA Ligase Mediated Rapid Amplification of cDNA ends (5′ RLM RACE).

IFIT1 mRNA, serum IFNα [1] = settings: mouse, in vivo, iv
IFIT1 mRNA, serum IFNα [2] = test: In vivo immune stimulation assay in Balb/c mice (IFIT1 mRNA, serum IFNα); settings: SNALP-formulated siRNA IV; for IFIT1 mRNA induction in liver and spleen: 4 h
[3] = system: Flt3-ligand derived murine dendritic cells; test: Cytokine induction in murine Flt3L dendritic cell cultures (ELISA); type: cell-based, mouse; settings: murine Flt3L DC, 5 μg/ml siRNA in SNALP, 24 h
Description: Cytokine Induction Assays: Flt3-ligand derived murine dendritic cells (Flt3L DC) were generated as described by Gilliet et al. (J. Exp. Med., 195:953-958) using 100 ng/ml murine Flt3-ligand (PeproTech Inc.; Rocky Hill, N.J.) supplemented media. Femurs and tibiae of female Balb/C mice were isolated and rinsed in sterile PBS. The ends of bones were cut and marrow harvested in complete media (RPMI 1640, 10% heat inactivated FBS, 1% penicillin/streptomycin, 2 mM L-glutamine, 1 mM sodium pyruvate, 25 mM HEPES, 50 μM 2-mercaptoethanol). Bone marrow cells were passed through a 70 μm strainer, centrifuged at 1000 rpm for 7 minutes, and resuspended in complete media supplemented with 100 ng/ml murine Flt3L to 2×10^6 cells/ml. 2 mls of cells were seeded in 6-well plates and 1 ml fresh complete media added every two or three days. On day 9 of culture, non-adherent cells were washed in complete media and plated into 96-well plates at concentrations ranging from 0.5 to 2.5×10^5 cells/well. 2′OMe-modified and unmodified (0/0) PLK-1 SNALP were diluted in PBS and added to Flt3L DC cultures at 5 μg/ml siRNA. Cells were incubated for 24 hours at 37° C. before supernatants were assayed for cytokines by ELISA.
Cytokine ELISA: Interferon-α and IL-6 in culture supernatants were quantified using sandwich ELISA kits according to manufacturer's instructions. These were mouse IFN-α (PBL Biomedical; Piscataway, N.J.) and mouse IL-6 (eBioscience; San Diego, Calif.).
In vitro immune stimulation assays. Mouse Flt3L dendritic cell cultures were generated as described previously (65). In brief, bone marrow from Balb/C mice was harvested in complete media (RPMI 1640, 10% FBS, 1% penicillin/streptomycin, 2 mM L-glutamine, 1 mM sodium pyruvate, 25 mM HEPES, 50 uM 2-mercaptoethanol), passed through a 70 micron strainer and resuspended to 2×10^6 cells/mL in complete media supplemented with 100 ng/mL murine Flt3L (Peprotech). Cells were seeded in 6-well plates and 1 mL fresh Flt3L media added every three days. On day 9 of culture, non-adherent cells were plated into 96 well plates at a concentration 2×10^5 cells/well. Formulated siRNA were diluted in PBS and added to the cells for 24 h before supernatants were assayed for cytokines by ELISA.
Cytokine ELISA. All cytokines were quantified using sandwich ELISA kits.

[4] = Multi-dose toxicity study in CD1 ICR mice; type: in vivo, mouse; settings: 2 mg/kg twice weekly, after 15 and 29 days
Description: Groups of CD1 ICR mice were administered PBS, PLK773-1/B, or Luc-U/U SNALP to assess potential cumulative toxicities associated with either PLK-1 silencing or the lipid vehicle. Mice were treated twice weekly at 2 mg/kg siRNA, equivalent to the efficacious dosing regimen in tumor studies. […] All values are mean+/−SD (n=6). No changes in red blood cell parameters were observed.

mouse KSP mRNA [5] = test: 5′ RACE-PCR in Neuro2a cells; type: cell-based; settings: 24 h
Description: (A) HT29 cells were treated with 10 nM SNALP-formulated PLK1424, Luc siRNA or PBS. RNA was isolated 24 hours after transfection and assayed for the specific PLK-1 mRNA cleavage product by 5′-RACE-PCR. (B) Neuro2a cells were treated with SNALP-formulated KSP2263, PLK773 siRNA or PBS. RNA was isolated 24 hours after transfection and assayed for the specific mouse KSP mRNA cleavage product by 5′-RACE-PCR.
The detection of specific RNA cleavage products generated by RISC-mediated hydrolysis of target mRNA is the definitive marker confirming RNAi as the mechanism of gene silencing (39, 40). Activated RISC cleaves target mRNA precisely between the nucleotides complementary to positions 10 and 11 of the siRNA AS strand generating an mRNA cleavage product that is unique to the siRNA sequence. This can be detected in cells using an appropriately designed 5′-rapid amplification of cDNA ends-PCR method (RACE-PCR). We developed RACE-PCR assays to detect the PLK1424-specific cleavage product of human PLK-1 mRNA and the KSP2263-specific cleavage product of mouse KSP mRNA.
as §1

mouse KSP mRNA [6] = test: 5′ RACE-PCR of hepatic Neuro2a tumors; type: in vivo
Description: as §1

Neuro2a tumors = test: Hepatic Neuro2a tumor histology (H&E, quantitative); type: in vivo, mouse
Description: Hepatic Neuro2a tumor histology 24 h after a single intravenous administration of (A) Luc-U/U or (B) KSP2263-U/U siRNA formulated in SNALP (2 mg/kg siRNA). Images are at 200× magnification and representative of tumors from at least 6 individual mice. […] (C) Quantitative histology of H&E stained tumor tissues from mice treated with SNALP-formulated KSP2263-U/U at 4, 2, 1, or 0.5 mg/kg siRNA. Tumor cells with condensed chromatin structures were scored positive and calculated as a % of total tumor cells taken from 10 fields of view. Positive cells included aberrant and typical mitotic and apoptotic figures. Values are mean+SD of 3 mice. Mean SNALP particle size and (polydispersity) were 88 (0.07) and 82 (0.08) nm for KSP2263 and Luc, respectively.
Histology. Tumors were harvested from mice 24 h after siRNA administration and fixed directly in 10% buffered formalin. Tissues were then processed as paraffin embedded tissue sections and stained with Hematoxylin and Eosin using conventional histological techniques. Quantitative analysis of stained sections was performed by counting the number of mitotic/apoptotic cells displaying condensed chromatin structures as a percentage of total tumor cells. Values for each tumor were derived from means of 10 fields of view at 400× magnification.

Neuro2a liver tumors = test: Intrahepatic Neuro2a tumor model (survival); type: in vivo, mouse; settings: A/J mice, hepatic Neuro2a tumors, 4 mg/kg Q3d x5
Description: PLK1424-2/A treatment confers significant survival advantages in scid/beige mice bearing hepatic Hep3B tumors. Mice were administered SNALP-formulated PLK1424-2/A (n=15) or Luc-U/U (n=8) at 6×2 mg/kg, intravenous twice weekly (d 10 to d 28). (A) Body weights (mean+SD) over the dosing period expressed as % of initial weight on d 10. (B) Kaplan-Meier plot of days to euthanization due to tumor burden. […] (p=0.03, Log-rank Mantel Cox test). (C) Residual hepatic Hep3B tumor burden in mice 24 h after final administration of PLK1424-2/A siRNA (5×2 mg/kg siRNA on d 8, 11, 14, 18 & 21). Bars represent hGAPDH mRNA/mg liver of individual mice (mean+/−SD of triplicate analyses) determined by human-specific bDNA assay (No tumor=livers from non-tumor seeded mice). […]
Intrahepatic tumor models. […] Mice were allowed to recover from anaesthesia in a sterile cage and monitored closely for 2-4 h before being returned to conventional housing.
Eight to 11 days after tumor implantation, mice were randomized into treatment groups. siRNA SNALP formulations or PBS vehicle control were administered by standard intravenous injection via the lateral tail vein, calculated on a mg siRNA/kg basis according to individual animal weights (10 mL/kg injection volume). Body weights were then monitored throughout the duration of the study as an indicator of developing tumor burden and treatment tolerability. […]

HeLa cells = test: Monoastral spindle formation in HeLa cells; type: cell-based, human; settings: 20 nM, 16 h
Description: HeLa cells were treated for 16 h with (A) Luc or (B) KSP2263 siRNA at 20 nM then immunostained for α-tubulin (FITC). DNA was stained with DAPI and flourescent images captured and overlayed.

## Luc-U/U: control 2′OMe siRNA targeting luciferase, SEQ ID NO:233/234 (chain 1 GANUANGNCCGGNNANGNAUU; chain 2 UACANAACCGGACANAANCUU; 2'-O-methyl modifications at selected positions, key for n not given here) [reference compound]
Hep3B liver tumors
  median survival time: 32 days
Hep3B liver tumors; days after tumor seeding
  time until first euthanization: 28 days
PLK-1 mRNA
  specific cleavage product of PLK-1 mRNA by 5′ RACE-PCR: not evident
IFIT1 mRNA, serum IFNα [1]
  serum IFNα / serum cytokine response: no measurable IFNα
IFIT1 mRNA, serum IFNα [2]
  IFIT1 mRNA induction in liver and spleen: no measurable IFNα or increase in IFIT1 mRNA in the liver or spleen

## PLK773-1/B: 2′OMe-modified PLK773 duplex, SEQ ID NO:220/223 (chain 1 AGACCUACCUCCGGAUCAAUU; chain 2 UUGAUCCGNAGNUAGGNCUUU; siRNA; chain 1: sugars from the 5' end r1 m1 r10 m1 r8, backbone not given here; chain 2: chemistry not given here)
[3]
  cytokine (IL-6, IFN-α) response: completely abrogated
[4]
  clinical chemistry and blood counts: no significant changes in serum liver enzymes, total wbc, lymphocyte and neutrophil counts, platelet numbers, or rbc parameters
IFIT1 mRNA, serum IFNα [2]; 4-6 h
  serum IFNα / serum cytokine response: no measurable IFNα
IFIT1 mRNA, serum IFNα [2]
  IFIT1 mRNA induction in liver and spleen: no measurable IFNα or increase in IFIT1 mRNA in the liver or spleen

## KSP2263-U/U: 2′OMe-modified KSP2263 duplex, SEQ ID NO:227/229 (chain 1 CNGAAGACCNGAAGACAANTT; chain 2 AUUGUCUNCAGGNCUNCAGTT; siRNA; 2'-O-methyl modifications at selected positions, key for n not given here)
Mouse KSP mRNA [5]
  KSP mRNA cleavage product by 5′ RACE-PCR: predicted 102 bp RACE-PCR product was amplified
Mouse KSP mRNA [6]
  RNAi-mediated KSP mRNA cleavage by RACE-PCR: confirmed the specific induction of RNAi-mediated KSP mRNA cleavage within tumors
Neuro2a tumors; 24 h after SNALP administration
  Neuro2a tumor histology (aberrant mitotic figures): significant numbers of tumor cells with aberrant mitotic figures typical of monoastral and apoptotic cells
Neuro2a tumors; 24 h post siRNA treatment
  tumor cells with condensed chromatin structures, % of total tumor cells: ~13%
Neuro2a liver tumors
  median survival time: 28 days
HeLa cells
  monoastral spindle phenotype: induced the distinct monoastral nuclear phenotype in vitro
IFIT1 mRNA, serum IFNα [1]
  serum IFNα / serum cytokine response: no measurable IFNα
IFIT1 mRNA, serum IFNα [2]
  IFIT1 mRNA induction in liver and spleen: no measurable IFNα or increase in IFIT1 mRNA in the liver or spleen
